Measured values published in PubChem BioAssay (NCI).
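Grown in 96-well plates, cells were treated for 48 hours with each compound at five concentrations. Insufficient inhibition: endpoint recorded as highest concentration tested. Here, GI50 denotes the concentration required for 50% inhibition of growth. TGI is the concentration that stops growth completely.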

Assays:
Assay in all cases: NCI anticancer screen, dose series, 48 h
NCI-H23 lung = test system: NCI-H23 lung
T-47D breast = test system: T-47D breast
NCI-H226 lung = test system: NCI-H226 lung
NCI-H460 lung = test system: NCI-H460 lung
HT29 colon = test system: HT29 colon
A549 NSCLC = test system: A549 NSCLC
M14 melanoma = test system: M14 melanoma
NCI/ADR-RES ovarian = test system: NCI/ADR-RES ovarian
NCI-H522 lung = test system: NCI-H522 lung
OVCAR-5 ovarian = test system: OVCAR-5 ovarian
ACHN renal = test system: ACHN renal
HOP-92 NSCLC = test system: HOP-92 NSCLC
OVCAR-3 ovarian = test system: OVCAR-3 ovarian
KM12 colon = test system: KM12 colon
OVCAR-8 ovarian = test system: OVCAR-8 ovarian
MOLT-4 leukemia = test system: MOLT-4 leukemia
U251 CNS = test system: U251 CNS
K-562 leukemia = test system: K-562 leukemia
CAKI-1 renal = test system: CAKI-1 renal
UO-31 renal = test system: UO-31 renal
MDA-MB-435 = test system: MDA-MB-435
MDA-MB-231 breast = test system: MDA-MB-231 breast
MALME-3M melanoma = test system: MALME-3M melanoma
LOX IMVI melanoma = test system: LOX IMVI melanoma
IGROV1 ovarian = test system: IGROV1 ovarian
UACC-257 melanoma = test system: UACC-257 melanoma
MCF7 breast = test system: MCF7 breast
HCT-15 colon = test system: HCT-15 colon
UACC-62 melanoma = test system: UACC-62 melanoma

Nc1c(C(=O)Nc2ccccc2Cl)sc2nc3c(cc12)C(=O)CCC3
TGI (NCI-H23 lung): > 100 µM
GI50 (T-47D breast): > 40 µM
TGI (T-47D breast): > 100 µM
GI50 (NCI-H226 lung): 14.6 µM
TGI (NCI-H226 lung): > 100 µM
GI50 (NCI-H460 lung): 0.673 µM
TGI (NCI-H460 lung): > 100 µM
GI50 (HT29 colon): 0.61 µM
TGI (HT29 colon): > 100 µM
GI50 (A549 NSCLC): 0.648 µM
TGI (A549 NSCLC): > 100 µM
GI50 (M14 melanoma): 1.06 µM
TGI (M14 melanoma): > 100 µM
GI50 (NCI/ADR-RES ovarian): 5.34 µM
TGI (NCI/ADR-RES ovarian): > 100 µM
GI50 (NCI-H522 lung): 0.777 µM
TGI (NCI-H522 lung): > 100 µM
GI50 (OVCAR-5 ovarian): > 100 µM
TGI (OVCAR-5 ovarian): > 100 µM
GI50 (ACHN renal): 15.9 µM
TGI (ACHN renal): > 100 µM
GI50 (HOP-92 NSCLC): 7.29 µM
TGI (HOP-92 NSCLC): > 100 µM
GI50 (OVCAR-3 ovarian): 1.22 µM
TGI (OVCAR-3 ovarian): > 100 µM
GI50 (KM12 colon): 0.592 µM
TGI (KM12 colon): > 100 µM
GI50 (OVCAR-8 ovarian): > 25 µM
TGI (OVCAR-8 ovarian): > 100 µM
GI50 (MOLT-4 leukemia): > 100 µM
TGI (MOLT-4 leukemia): > 100 µM
GI50 (U251 CNS): 4.18 µM
TGI (U251 CNS): > 100 µM
GI50 (K-562 leukemia): 0.493 µM
TGI (K-562 leukemia): > 100 µM
GI50 (CAKI-1 renal): 1.84 µM
TGI (CAKI-1 renal): > 100 µM
GI50 (UO-31 renal): > 100 µM
TGI (UO-31 renal): > 100 µM
GI50 (MDA-MB-435): 0.137 µM
TGI (MDA-MB-435): 0.349 µM
GI50 (MDA-MB-231 breast): 6.97 µM
TGI (MDA-MB-231 breast): > 100 µM
GI50 (MALME-3M melanoma): 2.78 µM
TGI (MALME-3M melanoma): > 100 µM
GI50 (LOX IMVI melanoma): 51.9 µM
TGI (LOX IMVI melanoma): > 100 µM
GI50 (IGROV1 ovarian): > 100 µM
TGI (IGROV1 ovarian): > 100 µM
GI50 (UACC-257 melanoma): 1.62 µM
TGI (UACC-257 melanoma): > 100 µM
GI50 (MCF7 breast): 0.494 µM
TGI (MCF7 breast): > 100 µM
GI50 (HCT-15 colon): 0.626 µM
TGI (HCT-15 colon): > 100 µM
GI50 (UACC-62 melanoma): 0.789 µM
TGI (UACC-62 melanoma): > 100 µM
